Active and inactive are the calls of the source. The rule behind the calls is not given here.
How the values were obtained:
[1] = Octanol-neutral aqueous buffer partition coefficient, log D of the compound at pH 7.4; format: physicochemical
[2] = Intrinsic clearance in human liver microsomes; format: ADME; details: read-out: CLH
[3] = system: Hepatitis C virus; experiment: Antiviral activity against Hepatitis C virus infected in human HuH7 cells; format: functional, organism-based; details: Hepacivirus hominis; Huh-7
[4] = target: Acetylcholinesterase (Homo sapiens) (UniProt P22303); experiment: Inhibition of human acetylcholinesterase at 10 uM relative to control
[5] = Volume of distribution at steady state in dog at 0.1 mg/kg, iv; format: ADME, organism-based, Canis lupus familiaris; parameters: dose 0.1 mg/kg, route intravenous; details: in vivo, read-out: Vdss
[6] = Terminal half life in rat at 1 mg/kg, iv; format: ADME, organism-based; parameters: dose 1 mg/kg, route intravenous; details: in vivo, read-out: beta t1/2 (converted)
[7] = system: Mus musculus; experiment: Stimulation of IFN-alpha production in po dosed CD-1 mouse; format: functional, organism-based
[8] = Clearance in rat at 1 mg/kg, iv; format: ADME, organism-based; parameters: dose 1 mg/kg, route intravenous; details: in vivo
[9] = Volume of distribution at steady state in rat at 1 mg/kg, iv; format: ADME, organism-based; parameters: dose 1 mg/kg, route intravenous; details: in vivo, read-out: Vdss
[10] = Oral bioavailability in rat at 2 mg/kg administered as nano suspension; format: ADME, organism-based; details: in vivo
[11] = Oral bioavailability in rat at 2 mg/kg administered as suspension; format: ADME, organism-based; details: in vivo
[12] = target: Adenosine receptor A2a (Homo sapiens) (UniProt P29274); experiment: Inhibition of adenosine A2A receptor (unknown origin) at 10 uM relative to control
[13] = target: T1, Adenosine receptor A1 (Homo sapiens) (UniProt P30542); experiment: Inhibition of adenosine A1 receptor (unknown origin) at 10 uM relative to control
T1 sequence (whole entry): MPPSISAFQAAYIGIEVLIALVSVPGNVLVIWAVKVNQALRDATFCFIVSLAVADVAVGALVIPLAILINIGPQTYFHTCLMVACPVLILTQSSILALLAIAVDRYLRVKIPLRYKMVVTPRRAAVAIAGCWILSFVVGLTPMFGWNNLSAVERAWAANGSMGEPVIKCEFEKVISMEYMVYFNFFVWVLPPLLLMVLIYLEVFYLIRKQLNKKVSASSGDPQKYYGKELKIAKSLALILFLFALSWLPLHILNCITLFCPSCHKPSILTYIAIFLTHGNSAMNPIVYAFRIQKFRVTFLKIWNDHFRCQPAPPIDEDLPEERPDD

[14] = Terminal half life in dog at 0.1 mg/kg, iv; format: ADME, organism-based, Canis lupus familiaris; parameters: dose 0.1 mg/kg, route intravenous; details: in vivo, read-out: beta t1/2 (converted)
[15] = Oral bioavailability in rat at 2 mg/kg administered as solution; format: ADME, organism-based; details: in vivo
[16] = Clearance in dog at 0.1 mg/kg, iv; format: ADME, organism-based, Canis lupus familiaris; parameters: dose 0.1 mg/kg, route intravenous; details: in vivo

Sequence of Acetylcholinesterase (Homo sapiens) (P22303 whole entry): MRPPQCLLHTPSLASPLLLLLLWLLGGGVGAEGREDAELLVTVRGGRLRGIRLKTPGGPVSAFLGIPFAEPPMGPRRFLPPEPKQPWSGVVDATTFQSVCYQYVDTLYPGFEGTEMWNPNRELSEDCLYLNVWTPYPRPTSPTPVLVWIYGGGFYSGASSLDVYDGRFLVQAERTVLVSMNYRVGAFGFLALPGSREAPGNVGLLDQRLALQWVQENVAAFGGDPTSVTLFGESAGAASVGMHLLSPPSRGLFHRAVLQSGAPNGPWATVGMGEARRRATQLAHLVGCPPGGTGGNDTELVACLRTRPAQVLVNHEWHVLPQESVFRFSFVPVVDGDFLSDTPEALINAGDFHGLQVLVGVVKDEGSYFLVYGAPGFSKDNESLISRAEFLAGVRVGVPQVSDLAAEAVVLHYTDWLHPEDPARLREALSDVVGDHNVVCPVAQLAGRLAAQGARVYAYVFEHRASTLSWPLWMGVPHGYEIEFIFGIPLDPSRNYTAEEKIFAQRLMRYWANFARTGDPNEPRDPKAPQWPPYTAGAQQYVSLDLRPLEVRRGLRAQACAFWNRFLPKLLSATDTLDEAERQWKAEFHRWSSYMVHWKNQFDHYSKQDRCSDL
Sequence of Adenosine receptor A2a (Homo sapiens) (P29274 whole entry): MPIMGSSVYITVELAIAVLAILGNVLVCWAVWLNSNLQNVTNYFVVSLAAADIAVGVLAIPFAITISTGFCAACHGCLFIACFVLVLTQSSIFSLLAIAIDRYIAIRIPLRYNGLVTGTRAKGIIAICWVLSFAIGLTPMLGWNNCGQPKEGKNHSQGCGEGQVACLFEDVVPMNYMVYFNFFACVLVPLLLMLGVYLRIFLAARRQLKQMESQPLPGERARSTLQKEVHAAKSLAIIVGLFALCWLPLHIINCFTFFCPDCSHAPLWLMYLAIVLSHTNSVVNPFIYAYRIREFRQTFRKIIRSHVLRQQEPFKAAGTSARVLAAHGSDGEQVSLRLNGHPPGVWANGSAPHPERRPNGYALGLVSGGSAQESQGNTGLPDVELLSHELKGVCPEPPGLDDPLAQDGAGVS

Row | Structure (SMILES) | logD [1] | microsomal CLint [2] [µL/min/mg] | Activity [3] | also measured
1 | O=c1[nH]c2cnc(C(F)(F)F)cc2n1Cc1ccccc1 | 3.1 | < 7 |  | 
2 | Nc1nccc2c1[nH]c(=O)n2Cc1ccccc1 | 1.9 | < 7 |  | 
3 | Cc1nc(N)c2c(n1)N(Cc1ccccc1)C(=O)C2 | 2 | < 7 | inactive | 
4 | COCCNc1nc(N)c2c(O)nn(Cc3ccccc3)c2n1 |  |  | inactive | 
5 | Cc1cc(N)c2[nH]c(=O)n(Cc3ccccc3)c2n1 | 2.3 | < 7 | inactive | 
6 | Cc1nc(N)c2[nH]c(=O)n(Cc3ccccc3)c2c1C | 2.6 | < 7 | inactive | 
7 | Cc1nc(N)c2c(n1)N(Cc1ccccc1)C(=O)NC2 | 1.6 | 16 | inactive | 
8 | Nc1nc(C(F)(F)F)cc2c1[nH]c(=O)n2Cc1ccccc1 |  | < 7 |  | inhibition [4]: 70%; Vd [5]: 2.3 L/kg; half-life [6]: 1 h; EC50 [7]: 58 nM; clearance [8]: 33 mL/min/kg; Vd [9]: 2.7 L/kg; bioavailability [10]: 71%; bioavailability [11]: 69%; inhibition [12]: 32%; inhibition [13]: 29%; half-life [14]: 5.5 h; bioavailability [15]: 48%; clearance [16]: 6 mL/min/kg
9 | Cc1cc2c([nH]c(=O)n2Cc2ccccc2)c(N)n1 | 2.3 | < 7 | inactive | 
10 | Nc1cc(C2CC2)nc2c(Cc3ccccc3)c(=O)[nH]n12 | 1.6 | < 7 | inactive | 
11 | O=c1[nH]n2c(O)nc(C3CC3)cc2c1Cc1ccccc1 | 1.7 | < 7 | inactive | 
12 | CC(C)c1cc2c([nH]c(=O)n2Cc2ccccc2)c(N)n1 | 3.1 | < 7 |  | 
13 | CCCc1cc2c([nH]c(=O)n2Cc2ccccc2)c(N)n1 | 3.1 | 14 |  | 
14 | Cc1nc(N)c2nc(O)n(Cc3ccccc3)c2n1 |  | < 7 | inactive | 
15 | Cc1nc(N)c2sc(=O)n(Cc3ccccc3)c2n1 |  |  | inactive | 
